From publication PMC9189845, “Structure–Activity Relationships of 8-Hydroxyquinoline-Derived Mannich Bases with Tertiary Amines Targeting Multidrug-Resistant Cancer” (Journal of Medicinal Chemistry, 2022)
Like-named read-outs stand apart in the source and are kept apart here.

Key:
[1] = UV-visible spectrophotometric titrations (pKa); type: physicochemical; settings: water with 0.2% (v/v) DMSO, 25 °C
Description: Spectrophotometrical determination of pKa values was performed as previously reported.[20],[50] An Agilent Cary 8454 diode array spectrophotometer was used to record the UV–visible spectra in the interval 200–800 nm. The path length was between 1 and 5 cm. The spectrophotometric titrations were performed in water with 0.2% (v/v) DMSO on samples containing the compounds at 2–50 μM in the pH range from 2 to 11.5 at 25.0 ± 0.1 °C at an ionic strength of 0.10 M (KCl). Proton dissociation constants and the individual spectra of the species in the different protonation states were calculated with the computer program PSEQUAD.[62]

[2] = test system: A431 cells; assay: PrestoBlue viability assay, A431 cells
[3] = test system: MES-SA cells; assay: PrestoBlue viability assay, MES-SA cells
[4] = test system: A431-B1 cells; assay: PrestoBlue viability assay, A431-B1 (A431-ABCB1) cells
[5] = test system: MES-SA/Dx5 cells; assay: PrestoBlue viability assay, MES-SA/Dx5 cells (MDR, P-gp positive); settings: for SR_TQ: selectivity ratio MES-SA vs MES-SA/Dx5, with TQ; for SR: selectivity ratio MES-SA vs MES-SA/Dx5, without TQ
[6] = 0.2% DMSO, I = 0.10 M KCl, read-out: pKa (OH), experimentally determined
[7] = read-out: pKa (NpiperaziniumH+ at methyl / N-ethyl), experimentally determined
[8] = quinolinium nitrogen, I = 0.10 M KCl, read-out: pKa (NquinH+), experimentally determined
[9] = Homo sapiens, A-431, 72 h, read-out: IC50 / µM A431, 72 h incubation
[10] = Homo sapiens, A-431, read-out: pIC50 A431, SARM figure (converted)
[11] = Homo sapiens, MES-SA, 72 h, read-out: IC50 / μM MES-SA, absence of TQ, 72 h incubation
[12] = Homo sapiens, MES-SA, read-out: IC50 / μM MES-SA (values in parentheses), presence of 1 μM P-gp inhibitor tariquidar (TQ)
[13] = Homo sapiens, MES-SA, read-out: pIC50 MES-SA, absence of TQ (converted), SARM figure
[14] = Homo sapiens, MES-SA, read-out: pIC50 MES-SA_TQ, presence of 1 μM TQ (converted), SARM figure
[15] = Homo sapiens, MES-SA, read-out: pIC50 value MES-SA+TQ, MES-SA cells, with TQ (converted)
[16] = Homo sapiens, MES-SA, read-out: pIC50 value MES-SA, MES-SA cells, without TQ (converted)
[17] = 72 h, read-out: IC50 / µM A431-B1, 72 h incubation
[18] = read-out: pIC50 A431-B1, SARM figure (converted)
[19] = Homo sapiens, MES-SA/Dx5, 72 h, read-out: IC50 / μM MES-SA/Dx5, absence of TQ, 72 h incubation
[20] = Homo sapiens, MES-SA/Dx5, read-out: IC50 / μM MES-SA/Dx5 (values in parentheses), presence of 1 μM P-gp inhibitor tariquidar (TQ)
[21] = Homo sapiens, MES-SA/Dx5, read-out: pIC50 value MES-SA/Dx5 + TQ, MES-SA/Dx5 cells, with TQ (converted)
[22] = Homo sapiens, MES-SA/Dx5, read-out: pIC50 value MES-SA/Dx5, MES-SA/Dx5 cells, without TQ (converted)
[23] = piperidinium / pyrrolidinium / morpholinium N, read-out: pKa (other; N+amH alkylamine nitrogen), experimentally determined

pKa [1, 6]	pKa [1, 8]	IC50 [2, 9]	IC50 [2, 10]	IC50 [4, 17]	IC50 [4, 18]	Compound	IC50 [3, 11]	IC50 [3, 12]	IC50 [3, 15]	IC50 [3, 16]	IC50 [5, 19]	IC50 [5, 20]	IC50 [5, 21]	IC50 [5, 22]	SR_TQ [5]	SR [5]	also measured
9.63 ± 0.03	3.56 ± 0.03	17 ± 1.04 µM	14.5 µM	3.55 ± 0.5 µM	6.31 µM	CN1CCN(Cc2cc(Cl)c3cccnc3c2O)CC1 [Compound 9]	5.86 ± 0.98 µM	5.14 µM	5.13 µM	5.37 µM	1.59 ± 0.27 µM	4.3 µM	4.27 µM	1.86 µM	1.19	2.84	pKa [1, 7]: 5.61 ± 0.03; IC50 ([2]; read-out: IC50 / µM A431, 72 h incubation): 15.9 ± 7.44 µM; IC50 [3, 13]: 5.75 µM; IC50 [3, 14]: 10 µM; IC50 ([3]; read-out: IC50 / μM MES-SA, absence of TQ, 72 h incubation): 5.39 ± 0.47 µM; IC50 ([4]; read-out: IC50 / µM A431-B1, 72 h incubation): 6.67 ± 2.4 µM; IC50 ([5]; Homo sapiens, MES-SA/Dx5, read-out: pIC50 Dx5, absence of TQ (converted), SARM figure): 1.55 µM; IC50 ([5]; Homo sapiens, MES-SA/Dx5, read-out: pIC50 Dx5_TQ, presence of 1 μM TQ (converted), SARM figure): 6.76 µM; IC50 ([5]; read-out: IC50 / μM MES-SA/Dx5, absence of TQ, 72 h incubation): 1.9 ± 0.37 µM
9.43 ± 0.03	4.64 ± 0.03	–	–	–	–	COCc1ccc(O)c2ncccc12 [Compound 14]	2.51 ± 0.13 µM	–	–	2.51 µM	1.79 ± 0.09 µM	–	–	1.78 µM	–	1.4	–
7.89 ± 0.03	2.49 ± 0.03	35.2 ± 11.5 µM	33.1 µM	5.92 ± 2.14 µM	5.62 µM	CCOCc1cc(CN2CCCC2)c(O)c2ncccc12 [Compound 18]	8.61 ± 1.31 µM	8.73 ± 0.54 µM	8.71 µM	8.51 µM	0.93 ± 0.18 µM	5.25 ± 0.18 µM	5.25 µM	0.912 µM	1.66	9.27	pKa [1, 23]: 11.21 ± 0.03
–	–	9.41 ± 1.41 µM	9.33 µM	8.06 ± 2.89 µM	7.59 µM	Oc1c(CN2CCN(c3ccccn3)CC2)cc(Cl)c2cccnc12 [Compound 43]	2.19 ± 0.12 µM	2.19 ± 0.17 µM	2.19 µM	2.19 µM	0.33 ± 0.05 µM	1.23 ± 0.05 µM	–	0.331 µM	1.78	6.55	IC50 [3, 13]: 2.19 µM; IC50 [3, 14]: 2.19 µM
–	–	4.04 ± 0.39 µM	3.98 µM	3.25 ± 0.94 µM	3.09 µM	Oc1c(CN2CCN(c3ccc(F)cc3)CC2)cc(Cl)c2cccnc12 [Compound 44]	1.61 ± 0.3 µM	1.75 ± 0.16 µM	1.74 µM	1.58 µM	0.25 ± 0.01 µM	0.65 ± 0.05 µM	0.646 µM	0.245 µM	2.7	6.56	SR (MES-SA_TQ / Dx5_TQ) (values in parentheses) ([5]; fraction of IC50 in P-gp negative vs positive cells, presence of 1 μM TQ): 2.70
8.45 ± 0.03	3.83 ± 0.03	–	–	–	–	Oc1ccc(CN2CCCCC2)c2cccnc12 [Compound 47]	7.45 ± 0.06 µM	–	–	7.41 µM	4.36 ± 0.4 µM	–	–	4.37 µM	–	1.71	pKa [1, 23]: 10.23 ± 0.03
–	–	8.57 ± 2.94 µM	8.13 µM	1.99 ± 0.25 µM	2 µM	CCOC(=O)C1CCN(Cc2cc(Cl)c3cccnc3c2O)CC1 [Compound 49]	1.78 ± 0.12 µM	1.7 µM	1.7 µM	1.78 µM	0.18 ± 0.03 µM	0.98 µM	0.977 µM	0.178 µM	1.73	9.91	–
–	–	5.57 ± 1.08 µM	5.5 µM	2.94 ± 1.69 µM	2.57 µM	Oc1c(CN2CCCCCC2)cc(Cl)c2cccnc12 [Compound 53]	2.76 ± 0.14 µM	2.64 ± 0.27 µM	2.63 µM	2.75 µM	0.33 ± 0.06 µM	2 ± 0.19 µM	2 µM	0.324 µM	1.32	8.4	–
9.67 ± 0.03	4.94 ± 0.03	–	–	–	–	CCN1CCN(Cc2ccc(O)c3ncccc23)CC1 [Compound 55]	17.7 ± 3.14 µM	–	–	17.4 µM	21.38 ± 0.1 µM	–	–	21.4 µM	–	0.83	pKa [1, 7]: 5.48 ± 0.03; pKa ([1]; read-out: pKa (NpiperaziniumH+ closer to quinoline ring), experimentally determined): 2.6 ± 0.03
